Values of other authors as cited in US8741809B2, “Liquid pyraclostrobin-containing crop protection formulations” (BASF SE, priority 2008, dated 2014).

Details: at 20° C.

Compound | solubility of the respective solvent in water
OCc1ccccc1 [benzyl alcohol] | (39 g/l)
O=C1CCCCC1 [cyclohexanone] | (24 g/l)
CC(=O)c1ccccc1 [acetophenone] | (5.5 g/l)
